pIC50: −log10 of the molar value. Where “and” joins values, the source holds several entries; their conditions need not be identical. Equal values may be shown once.
What follows are molecules tested on S. Typhi PhoP-promoter GFP reporter, fluorescence, 4 h (assay: PhoP regulon inhibitor project modified counter assay, GFP fluorescence readout, dose response (AID 1985)).

Row | SMILES | pIC50
1 | COc1c(N2CCN[C@H](C)C2)c(F)cc2c(=O)c(C(=O)O)cn(C3CC3)c12 | > 6.64
2 | Cc1ccc(S(=O)(=O)NNc2ccccc2)c(C)c1 | 3.93
3 | CCCCCCCCCCCCCCCC[N+](C)(C)CC | 4.65
4 | OC(CNCCc1ccc(Cl)cc1Cl)COc1ccccc1 (centres undefined) | 4.14
5 | O=C(O)c1cc2c(cn1)[nH]c1ccccc12 | 4.14
6 | O=c1ccnc(Sc2ncccc2[N+](=O)[O-])[nH]1 | 3.99
7 | CCCCCCCCCCOC(=O)C[N+](C)(C)CC1CCCCC1O (centres undefined) | 4.19
8 | CN1CCc2nc(SCC(=O)Nc3cccc(F)c3)c(C#N)c(-c3cccs3)c2C1 | 3.87
9 | O=C(NC(=S)NNC(=O)c1cccs1)c1ccco1 | 4.40
10 | C#CCOCCOCCOCCNc1nc(N2CCN(C(=O)CCCCCCCCCCNC(=O)[C@@H](CCSC)n3cc(CCO)nn3)CC2)nc(N2CCN(C(=O)CCCCCCCCCCNC(=O)[C@H]([C@@H](C)CC)n3cc(CCCCCN)nn3)CC2)n1 | 3.96
11 | CN1CCN(C(c2ccc(C(F)(F)F)cc2)c2ccc3cccnc3c2O)CC1 (centres undefined) | 4.46
12 | CCCCCCCC(=O)N/N=C/c1ccc([N+](=O)[O-])o1 | 4.52
13 | OC(CNCCc1ccccc1)COc1ccc(OCC(O)CNCCc2ccccc2)cc1 (centres undefined) | 4.67
14 | CCOC(=O)N1CCN(C(=O)c2cn(CC)c3cc(N4CCN(C)CC4)c(F)cc3c2=O)CC1 | 5.12
15 | CCc1ccc(-c2nn(-c3ccccc3)cc2CSC(=N)N)cc1 | 4.47
16 | CN(C)CCCNc1cc(C(C)(C)C)nc2c(-c3ccc(Cl)cc3)cnn12 | 4.46
17 | CN(C)CCCn1c(SCC(=O)N2c3ccccc3Sc3ccccc32)nc2ccccc2c1=O | 3.84
18 | CO[C@H]1C=CO[C@@]2(C)Oc3c(C)c(O)c4c(O)c(c5c(c4c3C2=O)NC2(CCN(CC(C)C)CC2)N=5)=NC(=O)C(C)=CC=C[C@H](C)[C@H](O)[C@@H](C)[C@@H](O)[C@@H](C)[C@H](OC(C)=O)[C@@H]1C | 5.39
19 | O=C(N/N=C/c1ccc(O)cc1O)C(=O)N/N=C/c1ccc(O)cc1O | 3.97
20 | O=C(Nc1ccc(Cl)cc1)Nc1ccc2c(c1)N1CCN=C1S2 | 4.24
21 | O=C(CC(=O)c1cc(Cl)ccc1O)c1ccccc1 | 3.89
22 | O=C(CNC(=O)c1cccc(F)c1)N/N=C/c1ccc([N+](=O)[O-])s1 | 4.62
23 | Cc1cc(NC2CCCCC2)nc(NCc2ccccc2)n1 | 4.11
24 | CC(C(=O)c1ccc(-c2ccccc2)cc1)[n+]1cccc(NC(=O)c2ccccc2)c1 (centres undefined) | 4.44
25 | CCCCCCCCCCOC(=O)Cn1c(COc2ccc(OC)cc2)[n+](C)c2ccccc21 | 4.71 and 4.73
26 | O=[N+]([O-])c1ccc(/C=[N+](\[O-])CCO)o1 | 4.47

Row | SMILES | pIC50
27 | Oc1c(C(Nc2ccccn2)c2cccnc2)cc(Cl)c2cccnc12 (centres undefined) | 4.47
28 | O=C(Cn1cncn1)N/N=C/c1ccccc1O | 3.99
29 | CN1CCc2nc(SCC(=O)Nc3ccc(Cl)cc3)c(C#N)cc2C1 | 4.17
30 | O=C(Oc1ccc[nH]c1=O)c1cc([N+](=O)[O-])cc([N+](=O)[O-])c1 | 4.34
31 | Fc1ccc(CCNCc2ccc(Cl)c(Cl)c2)cc1 | 4.17
32 | CC1(CC(=O)N/N=C/c2cc([N+](=O)[O-])c(O)cc2O)OCCO1 | 4.42
33 | CC[C@H]1OC(=O)[C@H](C)[C@@H](O[C@H]2C[C@@](C)(OC)[C@@H](O)[C@H](C)O2)[C@H](C)[C@@H](O[C@@H]2O[C@H](C)C[C@H](N(C)C)[C@H]2O)[C@](C)(OC)C[C@@H](C)C(=O)[C@H](C)[C@@H](O)[C@]1(C)O | 3.90
34 | Nc1ncn(C2O[C@H](CO)[C@@H](O)[C@H]2O)c(=O)n1 (some centres undefined) | 5.00
35 | CN(C)C1C(=O)C(C(N)=O)=C(O)C2(O)C(=O)C3=C(O)c4c(O)cccc4C(C)(O)C3CC12 (centres undefined) | 5.68
36 | O=C1Nc2ccccc2C1=Nc1ccc(S(=O)(=O)Nc2nccs2)cc1 | 4.05
37 | CCn1nc(C(=O)O)c(=O)c2cc3c(cc21)OCO3 | 3.99
38 | CC[C@@H](C)[C@H](CNC)NC[C@@H](Cc1cccc2ccccc12)NCCc1cccc(C(F)(F)F)c1 | 4.66
39 | Cc1ccc(NC(=O)CSC(N)=O)cc1Cl | 4.48
40 | NC(N)=N/N=C/c1ccc(OCc2ccc(Cl)cc2)cc1 | 4.44
41 | Cc1cc(NS(=O)(=O)c2ccc(NC(=S)NC(=O)c3cccnc3)cc2)no1 | 3.90
42 | CCCCCCCCCC[N+](C)(C)CC/C=C1/c2ccccc2Sc2ccc(Cl)cc21 | 4.78
43 | Fc1ccc(Nc2nnc(C(F)(F)F)s2)cc1Cl | 4.42
44 | CCn1cc(C(=O)O)c(=O)c2cc(F)c(N3CCN(C(=S)NC(=O)c4ccccc4C)CC3)cc21 | 4.55
45 | Clc1ccc(CN2C3=NCCN3c3ccccc32)cc1 | 4.05
46 | Cc1ccc(NC(=O)C(=O)NNC(=O)c2cccs2)cc1 | 4.88
47 | O=[N+]([O-])c1cc(Cl)c2cccnc2c1O | 5.84
48 | Oc1ccc(CN2CCCc3ccccc32)c2cccnc12 | 4.44
49 | Cc1nc2ccccn2c1C(=O)N/N=C/c1ccc([N+](=O)[O-])o1 | 4.48
50 | Cc1ccc(S(=O)(=O)NNc2ccccc2)cc1 | 3.87
51 | C#CCOCCOCCOCCNc1nc(N2CCN(C(=O)[C@H](Cc3ccc(O)cc3)n3cc([C@@H](N)CC(C)C)nn3)CC2)nc(N2CCN(C(=O)[C@H](Cc3cc4ccccc4[nH]3)n3cc([C@@H](N)CC(C)C)nn3)CC2)n1 | 4.07
52 | O=C(Nc1cccc(NC(=O)c2ccccc2Cl)c1)c1ccc([N+](=O)[O-])o1 | 4.76

Row | SMILES | pIC50
53 | Cc1ccc(OCC(=O)N/N=C/c2ccc([N+](=O)[O-])o2)cc1 | 4.54
54 | COc1ccc(C(C[N+](=O)[O-])C2(c3ccc(OC)c(OC)c3)C(=O)c3ccccc3C2=O)cc1 (centres undefined) | 5.09
55 | COc1ccc(/C=C/c2cc(-c3ccc(C)cc3)o[n+]2C)cc1 | 4.00
56 | CCn1cc(C(=O)NCCO)c(=O)c2cc(F)c(N3CCN(C)CC3)cc21 | 4.79
57 | O=C(NC(C(=O)c1ccccc1)n1c(=O)cc[nH]c1=S)c1ccccc1 (centres undefined) | 3.92
58 | N=c1n(Cc2ccc(Cl)cc2)c2ccccc2n1CC(O)COc1ccccc1 (centres undefined) | 4.18
59 | CC[n+]1c(/C=C/N(C)c2ccccc2)n(-c2ccccc2)c2ccc(-c3nc4ccccc4s3)cc21 | 5.05
60 | O=c1cc(-c2ccccc2)cc(-c2ccccc2)n1O | 4.29
61 | O=C(Nc1ccc([N+](=O)[O-])cc1Cl)c1cc(Cl)ccc1O | 4.12
62 | O=[N+]([O-])/C=C/c1cc2ccccc2[nH]1 | 4.19
63 | NC1=NC[C@@H](Cc2ccc(O)cc2)N1CCc1cc(C(F)(F)F)cc(C(F)(F)F)c1 | 3.98
64 | O=C(Cn1nc(CNc2ccc(Br)cc2)[n+]2c1CCCCC2)c1ccc([N+](=O)[O-])cc1 | 4.10
65 | COc1cc(C)c(Cc2cnc(N)nc2N)cc1OC | 5.62
66 | CN(C)CC/C=C1\c2ccccc2Sc2cc(F)c(Cl)cc21 | 4.18
67 | CCn1cc(C(=O)O)c(=O)c2cc(F)c(N3CCN(C(=S)NC(=O)c4ccccc4F)CC3)cc21 | 4.20
68 | CCCCCCCCC[n+]1cccc2c3ccccc3ccc21 | 4.57
69 | CC/C(=N\Nc1ccnc2cc(Cl)ccc12)c1ccc(O)cc1 | 3.83
70 | O=C(/C=C/c1ccccc1Cl)Nc1cccc(O)c1 | 4.21
71 | C#CCOCCOCCOCCNc1nc(N2CCN(C(=O)CCCCCCCCCCNC(=O)[C@H](CCCCN)n3cc(CCO)nn3)CC2)nc(N2CCN(C(=O)CCCCCCCCCCNC(=O)[C@H](CCCN=C(N)N)n3cc(C[C@@H](C)CC)nn3)CC2)n1 | 4.25
72 | Cc1cc(C)n(-c2nc(SCCN(C)C)c3c4c(sc3n2)CCCC4)n1 | 4.10
73 | COc1ccc2c(C(=O)CCl)c[nH]c2c1 | 4.44
74 | CCCCCOc1ccc(CSC2=NCCN2)cc1[N+](=O)[O-] | 4.02
75 | O=C(/C=C/c1ccco1)NC(=S)NNC(=O)c1ccco1 | 3.96
76 | CN1CCN(C2=Cc3ccccc3Sc3cc(F)c(Cl)cc32)CC1 | 3.97
77 | Nc1nc2ccccc2n1Cc1ccc(Cl)c(Cl)c1 | 4.26
78 | O=C(/C=C/c1cccs1)NC(=S)NNC(=O)c1ccccc1O | 4.57

Row | SMILES | pIC50
79 | CCCCOc1ccc(NC2=NC3(CCCC3)N=C(N)N2)cc1 | 4.14
80 | CCCCN(CCCC)C(=O)c1cn(CC)c2cc(N3CCN(C)CC3)c(F)cc2c1=O | 5.13
81 | CCn1cc(C(=O)O)c(=O)c2cc(F)c(N3CCN(C)CC3)cc21 | 6.37
82 | C/C(=C\C(=O)OCCCCCCCCC(=O)O)C[C@@H]1OC[C@H](C[C@@H]2O[C@H]2[C@@H](C)[C@H](C)O)[C@@H](O)[C@H]1O | 4.76
83 | O=C(O)c1cccc(N2C(=O)CSC2=S)c1 | 4.21
84 | CCN1CCN(C(=O)c2cc3cc(Cl)ccc3[nH]2)CC1 | 4.17
85 | C/C(=N\NC(=O)c1ccc(CN2CCc3ccccc3C2)cc1)c1ccccc1O | 4.38
86 | Nc1cccc2nc3ccccc3cc12 | 4.35
87 | c1ccc(Sc2cccc3ccccc23)c(CNC2=NCCN2)c1 | 4.10
88 | CCC(=O)N1CCN(c2cc3c(cc2F)c(=O)c(C(=O)O)cn3CC)CC1 | 3.90
89 | Cc1ccc(NC(=O)c2ccc([N+](=O)[O-])o2)c(C)c1 | 4.41
90 | CN(C)CC/C=C1\c2ccccc2Sc2ccc(Cl)cc21 | 4.01
91 | Oc1c(CN2CCCCC2)cc(Br)c2cccnc12 | 4.70
92 | CC1(C)N=C(N)N=C(N)N1c1ccc(Oc2ccc(Cl)cc2)c(Cl)c1 | 4.37
93 | O=c1c2ccccc2nc(N/N=C/c2c(O)ccc3ccccc23)n1O | 4.64
94 | CCc1ccc(NC(=O)Nc2ccncc2)cc1 | 4.29
95 | CCOC(=O)N1CCN(CCC(=O)c2ccc(Cl)cc2)CC1 | 3.97
96 | Cc1cc(C)c(OCCCCNCc2ccccc2)c(Cl)c1 | 3.95
97 | [O-][n+]1c2ccccc2cc2ccccc21 | 4.06
98 | O=C1CSC(=S)N1c1cccc(O)c1 | 4.14
99 | O=[N+]([O-])c1cccc(NNS(=O)(=O)c2ccccc2F)c1 | 5.09
100 | Cc1c(CCOC(=O)C2C3CC4CC(C3)CC2C4)sc[n+]1CC(=O)c1ccc(Br)cc1 (centres undefined) | 4.25
101 | Clc1ccc(OCCCN2CCCC2)cc1Cl | 4.32
102 | COc1ccc(NC(=O)COC(=O)c2ccc([N+](=O)[O-])o2)cc1Cl | 4.33
103 | O=C(CCN1CCN(c2ccccc2)CC1)N/N=C/c1ccc([N+](=O)[O-])o1 | 4.15
104 | O=C(Cn1nc(C(F)F)cc1C(F)F)NNC(=S)Nc1ccc([N+](=O)[O-])cc1 | 4.19

Reference: PubChem BioAssay AID1985 (Southern Research Specialized Biocontainment Screening …, 2009)
